Data reported in patent US12281122B1, “PI3K inhibitors” (Cogent Biosciences, Inc., priority 2023, dated 2025).

Assays:
[1] = tested on: SKBR3 (PI3Kα-Wild Type) cell line; test: HTRF phospho-AKT(S473) cell assay in SKBR3 cells; assay type: cell-based, human; details: Homo sapiens, SK-BR-3, 2 hours compound incubation, PDGF-BB stimulated
Method in brief: (§1)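 Cells plated overnight (T47D in RPMI/10% FBS/0.2 units/mL insulin; SKBR3 in McCoy's 5A/10% FBS), then given 12-point 1:3 compound series (top 5 μM T47D, 10 μM SKBR3; ≤0.5% DMSO) for 2 h at 37° C. SKBR3 stimulated with 70 ng/ml PDGF-BB for final 15 min. Lysate pAKT(S473) by HTRF; IC50 calculated.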

[2] = tested on: T47D (PI3Kα-H1047R) cell line; test: HTRF phospho-AKT(S473) cell assay in T47D cells; assay type: cell-based, human; details: Homo sapiens, 2 hours compound incubation
Method in brief: as §1

[3] = HTRF phospho-AKT(S473), SKBR3 (PI3Kα-Wild Type) cells
[4] = HTRF phospho-AKT(S473), T47D (PI3Kα-H1047R) cells
[5] = SKBR3 (PI3Kα-Wild Type) cells, HTRF phospho-AKT(S473)
[6] = T47D (PI3Kα-H1047R) cells, HTRF phospho-AKT(S473)

In the case of `Cc1cc([C@@H](C)Nc2ccc(Cl)nc2C(=O)NS(C)(=O)=O)c2nc(N3C[C@@H]4[C@H](C3)[C@H]4c3ccnc(N(C)C)c3)n(C)c(=O)c2c1` [Compound 745, 6-chloro-3-(((R)-1-(2-((1R,5S,6S)-6-(2-(dimethylamino)pyridin-4-yl)-3-azabicyclo[3.1.0]hexan-3-yl)-3,6-dimethyl-4-oxo-3,4-dihydroquinazolin-8-yl)ethyl)amino)-N-(methylsulfonyl) picolinamide], the IC50 [1, 3] is reported as at least 5 µM and the IC50 [2, 4] is reported as 250 to 500 nM.
`Cc1cnc(N2C[C@@H]3C[C@H]2CN3c2nc3c([C@@H](C)Nc4ccc(Cl)nc4C(=O)NS(C)(=O)=O)cc(C)cc3c(=O)n2C)nc1` [Compound 564, 6-chloro-3-(((R)-1-(3,6-dimethyl-2-((1S,4S)-5-(5-methylpyrimidin-2-yl)-2,5-diazabicyclo[2.2.1]heptan-2-yl)-4-oxo-3,4-dihydroquinazolin-8-yl)ethyl)amino)-N-(methylsulfonyl) picolinamide] was tested, and the IC50 [1, 3] was at least 5 µM and the IC50 [2, 4] was 250 to 500 nM.
Work on `Cc1cc([C@@H](C)Nc2ccc(Cl)nc2C(=O)NS(C)(=O)=O)c2nc(N3C[C@@H]4C[C@H]3CN4c3ccc(F)cn3)n(C)c(=O)c2c1` [Compound 623, 6-chloro-3-(((R)-1-(2-((1S,4S)-5-(5-fluoropyridin-2-yl)-2,5-diazabicyclo [2.2.1]heptan-2-yl)-3,6-dimethyl-4-oxo-3,4-dihydroquinazolin-8-yl)ethyl)amino)-N-(methylsulfonyl) picolinamide] yielded an IC50 [1, 3] of at least 5 µM and an IC50 [2, 4] of 250 to 500 nM.
With `Cc1cc([C@@H](C)Nc2ccc(Cl)nc2C(=O)NS(C)(=O)=O)c2nc(N3C[C@@H]4C[C@H]3CN4c3ncc(F)cn3)n(C)c(=O)c2c1` [Compound 669, 6-chloro-3-(((R)-1-(2-((1S,4S)-5-(5-fluoropyrimidin-2-yl)-2,5-diazabicyclo [2.2.1]heptan-2-yl)-3,6-dimethyl-4-oxo-3,4-dihydroquinazolin-8-yl)ethyl)amino)-N-(methylsulfonyl) picolinamide] the IC50 [1, 3] was at least 5 µM and the IC50 [2, 4] was 250 to 500 nM.
Work on `Cc1cc([C@@H](C)Nc2ccc(Cl)nc2C(=O)NS(C)(=O)=O)c2nc(N3C[C@@H]4[C@H](C3)[C@H]4c3nn(C)nc3C)n(C)c(=O)c2c1` [Compound 497, 6-chloro-3-(((R)-1-(2-((1R,5S,6R)-6-(2,5-dimethyl-2H-1,2,3-triazol-4-yl)-3-azabicyclo[3.1.0]hexan-3-yl)-3,6-dimethyl-4-oxo-3,4-dihydroquinazolin-8-yl)ethyl)amino)-N-(methylsulfonyl) picolinamide] yielded an IC50 [1, 3] of 1 to 5 µM and an IC50 [2, 4] of under 250 nM.
`Cc1cc([C@@H](C)Nc2ccc(Cl)nc2C(=O)NS(C)(=O)=O)c2nc(N3Cc4cnn(-c5ccccc5C)c4C3)n(C)c(=O)c2c1` [Compound 191, (R)-6-chloro-3-((1-(3,6-dimethyl-4-oxo-2-(1-(o-tolyl)-4,6-dihydropyrrolo[3,4-c]pyrazol-5(1H)-yl)-3,4-dihydroquinazolin-8-yl)ethyl)amino)-N-(methylsulfonyl) picolinamide] gave an IC50 [1, 5] of at least 5 µM and an IC50 [2, 6] of under 250 nM.
In the case of `[2H]C([2H])([2H])n1ncc(F)c1C1CCN(c2nc3c([C@@H](C)Nc4ccc(Cl)nc4C(=O)NS(C)(=O)=O)cc(C)cc3c(=O)n2C)CC1` [Compound 457, (R)-6-chloro-3-((1-(2-(4-(4-fluoro-1-(methyl-d3)-1H-pyrazol-5-yl)piperidin-1-yl)-3,6-dimethyl-4-oxo-3,4-dihydroquinazolin-8-yl)ethyl)amino)-N-(methylsulfonyl) picolinamide], the IC50 [1, 3] is reported as at least 5 µM and the IC50 [2, 4] is reported as 500 to 1000 nM.
`Cc1cc([C@@H](C)Nc2ccc(Cl)nc2C(=O)NS(C)(=O)=O)c2nc(N3CCN(c4ccc(C#N)cn4)CC3)n(C)c(=O)c2c1` [Compound 164, (R)-6-chloro-3-((1-(2-(4-(5-cyanopyridin-2-yl)piperazin-1-yl)-3,6-dimethyl-4-oxo-3,4-dihydroquinazolin-8-yl)ethyl)amino)-N-(methylsulfonyl) picolinamide] showed an IC50 [1, 5] of 1 to 5 µM and an IC50 [2, 6] of under 250 nM.
With `Cc1cc([C@@H](C)Nc2ccc(Cl)nc2C(=O)NS(C)(=O)=O)c2nc(N3CCN(c4ccccn4)CC3)n(C)c(=O)c2c1` [Compound 182, (R)-6-chloro-3-((1-(3,6-dimethyl-4-oxo-2-(4-(pyridin-2-yl)piperazin-1-yl)-3,4-dihydroquinazolin-8-yl)ethyl)amino)-N-(methylsulfonyl) picolinamide] the IC50 [1, 5] was 1 to 5 µM and the IC50 [2, 6] was under 250 nM.
Work on `Cc1cnc(N2C[C@H]3C[C@@H]2CN3c2nc3c([C@@H](C)Nc4ccc(Cl)nc4C(=O)NS(C)(=O)=O)cc(C)cc3c(=O)n2C)nc1` [Compound 565, 6-chloro-3-(((R)-1-(3,6-dimethyl-2-((1R,4R)-5-(5-methylpyrimidin-2-yl)-2,5-diazabicyclo[2.2.1]heptan-2-yl)-4-oxo-3,4-dihydroquinazolin-8-yl)ethyl)amino)-N-(methylsulfonyl) picolinamide] yielded an IC50 [1, 3] of at least 5 µM and an IC50 [2, 4] of 250 to 500 nM.
`Cc1cc([C@@H](C)Nc2ccc(Cl)nc2C(=O)NS(C)(=O)=O)c2nc(N3CC[C@@H](Oc4cnn(C)c4)C3)n(C)c(=O)c2c1` [Compound 320, 6-chloro-3-(((R)-1-(3,6-dimethyl-2-((R)-3-((1-methyl-1H-pyrazol-4-yl)oxy)pyrrolidin-1-yl)-4-oxo-3,4-dihydroquinazolin-8-yl)ethyl)amino)-N-(methylsulfonyl) picolinamide] showed an IC50 [1, 5] of 1 to 5 µM and an IC50 [2, 6] of under 250 nM.
For `Cc1cc([C@@H](C)Nc2ccc(Cl)nc2C(=O)NS(C)(=O)=O)c2nc(N3C[C@H]4C[C@@H]3CN4c3ncc(F)cn3)n(C)c(=O)c2c1` [Compound 668, 6-chloro-3-(((R)-1-(2-((1R,4R)-5-(5-fluoropyrimidin-2-yl)-2,5-diazabicyclo [2.2.1]heptan-2-yl)-3,6-dimethyl-4-oxo-3,4-dihydroquinazolin-8-yl)ethyl)amino)-N-(methylsulfonyl) picolinamide], the IC50 [1, 3] was at least 5 µM and the IC50 [2, 4] was 250 to 500 nM.
Work on `Cc1cnc(-c2ccc(-c3nc4c([C@@H](C)Nc5ccc(Cl)nc5C(=O)NS(C)(=O)=O)cc(C)cc4c(=O)n3C)cn2)nc1` [Compound 851, (R)-6-chloro-3-((1-(3,6-dimethyl-2-(6-(5-methylpyrimidin-2-yl)pyridin-3-yl)-4-oxo-3,4-dihydroquinazolin-8-yl)ethyl)amino)-N-(methylsulfonyl) picolinamide] yielded an IC50 ([1]; SKBR3 (PI3Kα-Wild Type) cell line, phospho-AKT(S473) HTRF) of 1 to 5 µM and an IC50 ([2]; T47D (PI3Kα-H1047R) cell line, phospho-AKT(S473) HTRF) of 250 to 500 nM.
`Cc1cc([C@@H](C)Nc2ccc(Cl)nc2C(=O)NS(C)(=O)=O)c2nc(N3C4CCC3CN(c3cnn(C)c3)C4)n(C)c(=O)c2c1` [Compound 269, 6-chloro-3-(((1R)-1-(3,6-dimethyl-2-(3-(1-methyl-1H-pyrazol-4-yl)-3,8-diazabicyclo[3.2.1]octan-8-yl)-4-oxo-3,4-dihydroquinazolin-8-yl)ethyl)amino)-N-(methylsulfonyl) picolinamide] gave an IC50 [1, 5] of 1 to 5 µM and an IC50 [2, 6] of under 250 nM.
With `Cc1cc([C@@H](C)Nc2ccc(Cl)nc2C(=O)NS(C)(=O)=O)c2nc(N3C[C@@H]4[C@H](C3)[C@H]4c3cnc(C(F)(F)F)nc3)n(C)c(=O)c2c1` [Compound 484, 6-chloro-3-(((R)-1-(3,6-dimethyl-4-oxo-2-((1R,5S,6S)-6-(2-(trifluoromethyl)pyrimidin-5-yl)-3-azabicyclo[3.1.0]hexan-3-yl)-3,4-dihydroquinazolin-8-yl)ethyl)amino)-N-(methylsulfonyl) picolinamide] the IC50 [1, 3] was 1 to 5 µM and the IC50 [2, 4] was 250 to 500 nM.
